The text below walks through data of PMC2664537 (Journal of medicinal chemistry, 2008).

Data set [1] in a line: solubility observed during assay preparation. The class given is physicochemical. The settings on record: for solubility in buffer with 5% DMSO: after being dissolved in DMSO initially.
The target in data set [2] is rhodopsin in urea-washed rod outer-segment membranes (MII state, R*) (Bos taurus, UniProt P02699). Briefly: extra MII stabilization assay. The class given is biochemical, bovine.
Data set [3] addresses R*-Gt interaction (photoactivated rhodopsin / transducin) (Bos taurus, UniProt P02699). Briefly: R*-Gt binding and release assay. Further details: species or system bovine.

The structures appear in SMILES notation.

rhodopsin in urea-washed rod outer-segment membranes (MII state, R*), sequence (P02699 whole entry): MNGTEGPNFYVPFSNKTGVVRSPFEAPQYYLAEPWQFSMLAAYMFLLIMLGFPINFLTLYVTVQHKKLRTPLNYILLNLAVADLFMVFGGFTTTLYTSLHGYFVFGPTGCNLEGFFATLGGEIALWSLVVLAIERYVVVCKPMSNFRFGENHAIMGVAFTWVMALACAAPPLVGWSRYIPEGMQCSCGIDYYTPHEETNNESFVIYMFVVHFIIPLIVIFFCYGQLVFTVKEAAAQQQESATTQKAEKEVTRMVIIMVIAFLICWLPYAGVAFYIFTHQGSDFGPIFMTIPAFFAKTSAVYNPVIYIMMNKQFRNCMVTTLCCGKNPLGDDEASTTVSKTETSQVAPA
R*-Gt interaction (photoactivated rhodopsin / transducin), sequence (P02699 whole entry): as above

On to `C[C@]12CC[C@H]3[C@@H](CCC4=CC(=O)CC[C@@]43C)[C@@H]1CC[C@@H]2C(=O)COS(=O)(=O)c1ccc(Br)cc1` [Compound 3], for which the “solubility in buffer with 3% DMSO/3% butanol” value in data set [1] (dissolved in DMSO/butanol solution, then buffer added) was “remained soluble”. In the case of `C[C@H]1[C@H](C)CC[C@]2(C(=O)O)CC[C@]3(C)C(=CC[C@@H]4[C@@]5(C)C[C@@H](O)[C@H](O)[C@@](C)(CO)[C@@H]5[C@H](O)C[C@]43C)[C@H]12` [Compound 2, madecassic acid], the “solubility in buffer with 5% DMSO” value in data set [1] is “soluble”. For the compound `CC1(C)[C@@H](O)CC[C@]2(C)[C@H]3C(=O)C=C4[C@@H]5C[C@@](C)(C(=O)O)CC[C@]5(C)CC[C@@]4(C)[C@]3(C)CC[C@@H]12` [Compound 12], the “activity in extra MII assay using pure compound” value in data set [2] (pure compound) is reported as “neither showed significant activity”. In data set [2], `CC1(C)CC[C@]2(C(=O)O)CC[C@]3(C)C(=CC[C@@H]4[C@@]5(C)C[C@H](O)[C@H](O)[C@@](C)(C(=O)O)[C@@H]5CC[C@]43C)[C@@H]2C1` [Compound 16, medicagenic acid] showed an EC50 of 350 µM. In data set [3], this compound came in with a half-inhibitory concentration (IC50) of 2000 µM. Also, the “solubility in buffer with 5% DMSO” value in data set [1] is reported as “soluble”.

Broadly, the EC50 is the concentration that produces a half-maximal response. The IC50 is the concentration that inhibits the measured activity by half.
